Assay results published in ChEMBL document CHEMBL3885861, “Open TG-GATES”.

Species: Rattus norvegicus
Experiment: Open TG-GATES - Regimen: Single
Assay type: toxicity, organism-based, Sprague-Dawley
Parameters: regimen Single, gender Male, age 6 weeks
Details: in vivo, po, route gavage; for APTT / Bas / Eos / Fbg / Hb / Lym / MCH / MCHC / MCV / Mono / RBC / Ret / WBC: tissue Blood; for KIDNEY_L / KIDNEY_R / KIDNEY_TOTAL: tissue Kidney; for LIVER: tissue Liver; for ALP / ALT / AST / CRE / Ca / Cl / DBIL / GLC / IP / K / LDH / Na / PL / RALB / TBIL / TC / TG / TP / gamma-GTP: tissue Plasma
[1] = 0 mg/kg, 3 h, dose level Control
[2] = 0 mg/kg, 6 h, dose level Control
[3] = 0 mg/kg, 9 h, dose level Control
[4] = 0 mg/kg, 24 h, dose level Control

O=C1CN(/N=C/c2ccc(-c3ccc([N+](=O)[O-])cc3)o2)C(O)=N1 [DANTROLENE]
TERMINAL_BW [1]: 200.3 g
APTT [1]: 16.2 s
Bas [1]: 0%
Eos [1]: 1%
Fbg [1]: 209.6 mg/dL
Hb [1]: 13.4 g/dL
Lym [1]: 82.4%
MCH [1]: 22.9 pg
MCHC [1]: 34.6%
MCV [1]: 66.2 fL
Mono [1]: 5.6%
RBC [1]: 586.4 x10_4/ul
Ret [1]: 10.7%
WBC [1]: 134.1 x10_2/uL
KIDNEY_L [1]: 1 g
KIDNEY_R [1]: 1 g
KIDNEY_TOTAL [1]: 1.9 g
LIVER [1]: 9.3 g
ALP [1]: 876.8 IU/L
ALT [1]: 36.2 IU/L
AST [1]: 69.2 IU/L
CRE [1]: 0.5 mg/dL
Ca [1]: 10.6 mg/dL
Cl [1]: 103.8 meq/L
DBIL [1]: 0.058 mg/dL
GLC [1]: 194.2 mg/dL
IP [1]: 8.7 mg/dL
K [1]: 4.7 meq/L
LDH [1]: 92.8 IU/L
Na [1]: 139.6 meq/L
PL [1]: 134.8 mg/dL
RALB [1]: 3.6 g/dL
TBIL [1]: 0.3 mg/dL
TC [1]: 75 mg/dL
TG [1]: 47 mg/dL
TP [1]: 5.3 g/dL
gamma-GTP [1]: 2.2 IU/L
TERMINAL_BW [2]: 201.9 g
APTT [2]: 16.6 s
Bas [2]: 0%
Eos [2]: 1%
Fbg [2]: 205 mg/dL
Hb [2]: 13.3 g/dL
Lym [2]: 77.4%
MCH [2]: 22.6 pg
MCHC [2]: 34.6%
MCV [2]: 65.4 fL
Mono [2]: 9.2%
RBC [2]: 588 x10_4/ul
Ret [2]: 13.2%
WBC [2]: 107.2 x10_2/uL
KIDNEY_L [2]: 1 g
KIDNEY_R [2]: 0.9 g
KIDNEY_TOTAL [2]: 1.9 g
LIVER [2]: 9.3 g
ALP [2]: 689.6 IU/L
ALT [2]: 32.6 IU/L
AST [2]: 59.6 IU/L
CRE [2]: 0.5 mg/dL
Ca [2]: 10.5 mg/dL
Cl [2]: 104.4 meq/L
DBIL [2]: 0.064 mg/dL
GLC [2]: 196.4 mg/dL
IP [2]: 9.5 mg/dL
K [2]: 4.7 meq/L
LDH [2]: 82.2 IU/L
Na [2]: 140 meq/L
PL [2]: 135.2 mg/dL
RALB [2]: 3.5 g/dL
TBIL [2]: 0.3 mg/dL
TC [2]: 79.8 mg/dL
TG [2]: 58.2 mg/dL
TP [2]: 5.3 g/dL
gamma-GTP [2]: 1.2 IU/L
TERMINAL_BW [3]: 195.9 g
APTT [3]: 17.1 s
Bas [3]: 0%
Eos [3]: 1%
Fbg [3]: 200.6 mg/dL
Hb [3]: 13 g/dL
Lym [3]: 76.4%
MCH [3]: 21.5 pg
MCHC [3]: 33.1%
MCV [3]: 64.9 fL
Mono [3]: 9.8%
RBC [3]: 605.8 x10_4/ul
Ret [3]: 10.2%
WBC [3]: 98.6 x10_2/uL
KIDNEY_L [3]: 0.9 g
KIDNEY_R [3]: 0.9 g
KIDNEY_TOTAL [3]: 1.8 g
LIVER [3]: 8 g
ALP [3]: 881.6 IU/L
ALT [3]: 33.4 IU/L
AST [3]: 73.2 IU/L
CRE [3]: 0.5 mg/dL
Ca [3]: 10.1 mg/dL
Cl [3]: 107.6 meq/L
DBIL [3]: 0.084 mg/dL
GLC [3]: 200.2 mg/dL
IP [3]: 10.4 mg/dL
K [3]: 4.9 meq/L
LDH [3]: 80.2 IU/L
Na [3]: 140 meq/L
PL [3]: 127.2 mg/dL
RALB [3]: 3.6 g/dL
TBIL [3]: 0.4 mg/dL
TC [3]: 73.2 mg/dL
TG [3]: 21.2 mg/dL
TP [3]: 5.1 g/dL
gamma-GTP [3]: 1.6 IU/L
TERMINAL_BW [4]: 212.6 g
APTT [4]: 17.5 s
Bas [4]: 0%
Eos [4]: 1.2%
Fbg [4]: 207.4 mg/dL
Hb [4]: 13.2 g/dL
Lym [4]: 76.6%
MCH [4]: 21.9 pg
MCHC [4]: 33.7%
MCV [4]: 64.9 fL
Mono [4]: 9.4%
RBC [4]: 602.2 x10_4/ul
Ret [4]: 12.5%
WBC [4]: 91.9 x10_2/uL
KIDNEY_L [4]: 1 g
KIDNEY_R [4]: 1 g
KIDNEY_TOTAL [4]: 2 g
LIVER [4]: 10.2 g
ALP [4]: 993.6 IU/L
ALT [4]: 33.8 IU/L
AST [4]: 63.8 IU/L
CRE [4]: 0.5 mg/dL
Ca [4]: 10.9 mg/dL
Cl [4]: 105.6 meq/L
DBIL [4]: 0.012 mg/dL
GLC [4]: 198.4 mg/dL
IP [4]: 8 mg/dL
K [4]: 4.7 meq/L
LDH [4]: 80.6 IU/L
Na [4]: 141.6 meq/L
PL [4]: 144.2 mg/dL
RALB [4]: 3.7 g/dL
TBIL [4]: 0.4 mg/dL
TC [4]: 73.8 mg/dL
TG [4]: 91.6 mg/dL
TP [4]: 5.5 g/dL
gamma-GTP [4]: 1.8 IU/L
TERMINAL_BW (25 mg/kg, 3 h, dose level Low): 196.9 g
APTT (25 mg/kg, 3 h, dose level Low): 16.9 s
